Measured values reported in US20140135327A1, “N- (2 -AMINOPHENYL) BENZAMIDE DERIVATIVES AS HISTONE DEACETYLASE INHIBITORS” (CANCER RESEARCH TECHNOLOGY LIMITED, priority 2011, published 2014).

What was measured:
HDAC 6 [1] = biological target: T1, HDAC 6 (Homo sapiens, UniProt Q9UBN7); experiment: Caliper HDAC inhibitor profiling assay (microfluidic mobility-shift), HDAC 6; assay type: biochemical; settings: 1 hour at room temperature, read-out: IC50 (μM) HDAC6
T1 sequence (Q9UBN7 1-1215): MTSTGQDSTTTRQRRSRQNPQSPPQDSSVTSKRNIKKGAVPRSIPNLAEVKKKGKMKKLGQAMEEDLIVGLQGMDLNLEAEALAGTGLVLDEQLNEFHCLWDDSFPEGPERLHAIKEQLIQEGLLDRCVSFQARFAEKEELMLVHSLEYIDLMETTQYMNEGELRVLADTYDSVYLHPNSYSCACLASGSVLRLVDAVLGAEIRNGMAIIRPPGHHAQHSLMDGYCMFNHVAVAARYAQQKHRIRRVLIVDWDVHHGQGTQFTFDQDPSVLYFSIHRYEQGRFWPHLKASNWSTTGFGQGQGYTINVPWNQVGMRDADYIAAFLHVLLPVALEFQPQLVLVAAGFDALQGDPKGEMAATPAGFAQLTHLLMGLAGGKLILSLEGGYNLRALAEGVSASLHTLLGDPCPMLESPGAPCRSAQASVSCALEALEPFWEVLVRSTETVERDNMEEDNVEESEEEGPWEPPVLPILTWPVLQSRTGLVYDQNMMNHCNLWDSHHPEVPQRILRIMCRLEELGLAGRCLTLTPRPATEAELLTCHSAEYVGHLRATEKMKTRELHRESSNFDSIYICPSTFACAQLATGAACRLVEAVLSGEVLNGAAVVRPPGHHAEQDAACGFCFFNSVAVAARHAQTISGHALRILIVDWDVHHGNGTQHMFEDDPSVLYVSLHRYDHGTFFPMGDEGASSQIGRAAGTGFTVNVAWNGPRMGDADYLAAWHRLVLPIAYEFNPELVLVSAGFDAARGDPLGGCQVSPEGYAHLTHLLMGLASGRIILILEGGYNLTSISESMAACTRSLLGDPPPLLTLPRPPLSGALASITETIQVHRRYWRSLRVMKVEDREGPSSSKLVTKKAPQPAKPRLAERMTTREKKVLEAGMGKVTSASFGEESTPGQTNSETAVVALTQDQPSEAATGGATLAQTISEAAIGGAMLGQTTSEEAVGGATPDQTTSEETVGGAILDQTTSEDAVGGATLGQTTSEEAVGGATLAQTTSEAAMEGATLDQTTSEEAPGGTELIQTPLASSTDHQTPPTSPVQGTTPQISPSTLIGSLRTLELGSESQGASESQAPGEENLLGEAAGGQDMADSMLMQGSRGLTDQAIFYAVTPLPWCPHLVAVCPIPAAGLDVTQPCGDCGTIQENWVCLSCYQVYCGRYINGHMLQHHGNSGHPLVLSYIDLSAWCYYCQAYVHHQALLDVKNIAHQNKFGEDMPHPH
Description: The activity of the compounds of the invention against HDAC 3 (Class I) and HDAC 6 (Class II) can be determined using the Caliper Life Sciences HDAC inhibitor profiling assay, which utilises microfluidic mobility-shift detection.
Reaction buffer: 25 mM Tris/Cl, pH 8.0, 137 mM NaCl, 2.7 mM KCl, 1 mM MgCl2, 0.1 mg/ml BSA (fatty acid free).
Stop Buffer: 100 mM HEPES, pH 7.5, 10 mM EDTA, 0.04% Brij-35, 0.25% CR-3, and 2.5 μM Trichostatin A.
Stopped reactions were assembled in microtiter plate wells by adding 1 μL of the inhibitor compound in DMSO, 15 μL 2× Enzyme, and 15 μL 2× peptide. The reactions were incubated for 1 hour at room temperature, stopped with the addition of 45 μL Stop Solution, and read on the LabChip EZ Reader®. The curves were fit with sigmoidal dose response algorithm using GraphPad Prism.

HDAC 6 [2] = biological target: T1, HDAC 6; experiment: Fluorescence-based HDAC isoform assay with electrophoretic separation, HDAC 6; assay type: biochemical; settings: isolated 6×His-tagged isoform, 1 μM FAM-labeled acetylated peptide, 17 h at 25° C.
Description: The inhibitory effects of the compounds of Examples 7 and 9 above on HDAC activity were determined using a fluorescence-based assay with electrophoretic separation of substrate and product carried out using a microfluidic system followed by quantitation of fluorescence intensity in the substrate and product peaks.
The assays were performed using isolated HDAC isoforms that had been expressed as 6×His-tagged fusion proteins in a baculovirus expression system in Sf9 cells. HDACs 1, 2, 3, 6, and 8 were expressed as full length fusion proteins. For HDAC-4 and 7 only catalytic domains were expressed (HDAC-4 CAT and HDAC-7 CAT). The HDAC10 fusion protein was expressed as a carboxy-terminal deletion of 38 amino acids (residues 632-669). HDAC3 was coexpressed with a fragment of the SMRT gene (residues 395-489) to generate enzymatically active protein. Purified proteins were incubated with 1 μM carboxyfluorescein (FAM)-labeled acetylated peptide substrate and test compound for 17 h at 25° C. in HDAC assay buffer containing 100 mM HEPES (pH 7.5), 25 mM KCl, 0.1% BSA, and 0.01% Triton X-100. […] Substrate and product were separated electrophoretically using a Caliper LabChip 3000 system with blue laser excitation and green fluorescence detection (CCD2). The fluorescence intensity in the substrate and product peaks was determined using the Well Analyzer software on the Caliper system. […]

IC50 (HDAC 6 [1]) [µM]	IC50 (HDAC 6 [2]) [µM]	Structure (SMILES)
> 10	> 30	C=C1CN(Cc2ccc(C(=O)Nc3ccccc3N)cc2)C(CC(=O)O)c2ccccc21 (stereo not shown) [Example 9, [2-(4-{[(2-Aminophenyl)amino]carbonyl}benzyl)-4-methylene-1,2,3,4-tetra hydroisoquinolin-1-yl]acetic acid]
> 10	> 30	C=C1CN(Cc2ccc(C(=O)Nc3ccccc3N)cc2)C(=O)c2ccccc21 [Example 7, N-(2-Aminophenyl)-4-[(4-methylene-1-oxo-3,4-dihydroisoquino-2(1H)-yl)methyl]benzamide]
